Laboratory results taken from patent publication US9725462B2, “Pyridopyrimidine derivatives as protein kinase inhibitors” (Merck Patent GmbH, priority 2012, dated 2017).

Biological target: T1, SYK (Homo sapiens, UniProt P43405)
T1 construct: 2.5 nM SYK, 400 nM Biotin-Aha-Aha-KEDPDYEWPSAKK
Experiment: SYK Flash Plate Assay (enzyme assay)
Format: biochemical
Conditions: Syk inhibition
Description: The following abbreviations refer respectively to the definitions below: • aq (aqueous), h (hour), g (gram), L (liter), mg (milligram), MHz (Megahertz), min. (minute), mm (millimeter), mmol (millimole), mM (millimolar), m.p. (melting point), eq (equivalent), mL (milliliter), L (microliter), ACN (acetonitrile), AcOH (acetic acid), CDCl3 (deuterated chloroform), CD3OD (deuterated methanol), CH3CN (acetonitrile), c-hex (cyclohexane), DCC (dicyclohexyl carbodiimide), DCM (dichloromethane), DIC (diisopropyl carbodiimide), DIEA (diisopropylethyl-amine), DMF (dimethylformamide), DMSO (dimethylsulfoxide), DMSO-d6 (deuterated dimethylsulfoxide), EDC (1-(3-dimethyl-amino-propyl)-3-ethylcarbodiimide), ESI (Electro-spray ionization), EtOAc (ethyl acetate), Et2O (diethyl ether), EtOH (ethanol), HATU (dimethylamino-([1,2,3]triazolo[4,5-b]pyridin-3-yloxy)-methylene]-dimethyl-ammonium hexafluorophosphate), HPLC (High Performance Liquid Chromatography), i-PrOH (2-propanol), K2CO3 (potassium carbonate), LC (Liquid Chromatography), MeOH (methanol), MgSO4 (magnesium sulfate), MS (mass spectrometry), MTBE (Methyl tert-butyl ether), NaHCO3 (sodium bicarbonate), NaBH4 (sodium borohydride), NMM (N-methyl morpholine), NMR (Nuclear Magnetic Resonance), PyBOP (benzotriazole-1-yl-oxy-tris-pyrrolidino-phosphonium hexafluorophosphate), RT (room temperature), Rt (retention time), SPE (solid phase extraction), TBTU (2-(1-H-benzotriazole-1-yl)-1,1,3,3-tetramethyluromium tetrafluoro borate), TEA (triethylamine), TFA (trifluoroacetic acid), THF (tetrahydrofuran), TLC (Thin Layer Chromatography), UV (Ultraviolet). Description of the In Vitro Assays SYK Flash Plate Assay
The kinase assay is performed either as 384-well Flashplate assay (for e.g. Topcount measurement) or as 384-well Image-Flashplate assay (for LEADseeker measurement).
2.5 nM SYK, 400 nM Biotin-Aha-Aha-KEDPDYEWPSAKK
and 10 μM ATP (spiked with 0.3 μCi 33P-ATP/well) are incubated in a total volume of 50 μl (60 mM Hepes, 10 mM MgCl2, 1.2 mM Dithiothreitol, 0.02% Brij35, 0.1% BSA, pH 7.5) with or without test compound for 1 hours at 30° C. The reaction is stopped with 25 μl 200 mM EDTA. After 30 Min at 30° C. the liquid is removed and each well washed thrice with 100 μl 0.9% sodium chloride solution. Non-specific reaction is determined in presence of 0.1 μM Staurosporine. Radioactivity is measured with Topcount (when using Flashplates) or with LEADseeker (when using Image-Flashplates) respectively. Results (e.g. IC50-values) are calculated with program tools provided by the IT-department (e.g. Symyx Assay Explorer, Genedata Screener). In Vivo Assays CIA

Structure (SMILES)	IC50
Nc1ncc(-c2cccc(-n3nccn3)c2)c2nc(N[C@H]3CCCC[C@H]3N)ncc12 (relative stereo) [Compound A3, N2-(cis-2-Amino-cyclohexyl)-8-(3-[1,2,3]triazol-2-yl-phenyl)-pyrido[4,3-d]pyrimidine-2,5-diamine]	100 to 1000 nM
CC(C)(C)c1ccc(-c2cnc(N)c3cnc(N[C@H]4CCCC[C@H]4N)nc23)cc1 (relative stereo) [Compound A7, N2-(cis-2-Amino-cyclohexyl)-8-(4-tert-butyl-phenyl)-pyrido[4,3-d]pyrimidine-2,5-diamine]	1000 to 50000 nM
CC(C)Cn1cc(-c2cnc(N)c3cnc(N[C@H]4CCCC[C@H]4N)nc23)cn1 (relative stereo) [Compound A8, N2-(cis-2-Amino-cyclohexyl)-8-(1-isobutyl-1H-pyrazol-4-yl)-pyrido[4,3-d]pyrimidine-2,5-diamine]	100 to 1000 nM
N#Cc1cnc(N)c2cnc(N[C@H]3CCCC[C@H]3N)nc12 (relative stereo) [Compound A9, 5-Amino-2-(cis2-amino-cyclohexylamino)-pyrido[4,3-d]pyrimidine-8-carbonitrile]	1000 to 50000 nM
Nc1ncc(-c2cc3ccccc3[nH]2)c2nc(N[C@@H]3CCCC[C@@H]3N)ncc12 (relative stereo) [Compound A10, N2-(cis-2-Amino-cyclohexyl)-8-(1H-indol-2-yl)-pyrido[4,3-d]pyrimidine-2,5-diamine]	< 100 nM
COc1cccc2cc(-c3cnc(N)c4cnc(N[C@@H]5CCCC[C@@H]5N)nc34)[nH]c12 (relative stereo) [Compound A18, N2-(cis-2-Amino-cyclohexyl)-8-(7-methoxy-1H-indol-2-yl)-pyrido[4,3-d]pyrimidine-2,5-diamine]	< 100 nM
COc1ccc2[nH]c(-c3cnc(N)c4cnc(N[C@@H]5CCCC[C@@H]5N)nc34)cc2c1 (relative stereo) [Compound A19, N2-(cis-2-Amino-cyclohexyl)-8-(5-methoxy-1H-indol-2-yl)-pyrido[4,3-d]pyrimidine-2,5-diamine]	< 100 nM
N#Cc1ccc2[nH]c(-c3cnc(N)c4cnc(N[C@@H]5CCCC[C@@H]5N)nc34)cc2c1 (relative stereo) [Compound A23, 2-[5-Amino-2-((cis)-2-amino-cyclohexylamino)-pyrido[4,3-d]-pyrimidin-8-yl]-1H-indole-5-carbonitrile]	100 to 1000 nM
Nc1ncc(-c2c[nH]c3ccccc23)c2nc(N[C@H]3CCCC[C@H]3N)ncc12 (relative stereo) [Compound A24, N2-(cis-2-Amino-cyclohexyl)-8-(1H-indol-3-yl)-pyrido[4,3-d]pyrimidine-2,5-diamine]	< 100 nM
Cc1nn(C)cc1-c1cncc2cnc(N[C@@H]3CCCC[C@@H]3N)nc12 (relative stereo) [Compound A25, cis-N-[8-(1,3-Dimethyl-1H-pyrazol-4-yl)-pyrido[4,3-d]pyrimidin-2-yl]-cyclohexane-1,2-diamine]	1000 to 50000 nM
Cc1ncc(-c2c[nH]c3cc(C#N)ccc23)c2nc(N[C@H]3CCCC[C@H]3N)ncc12 (relative stereo) [Compound A85, 3-[2-((cis)-2-amino-cyclohexylamino)-5-methyl-pyrido[4,3-d]pyrimidin-8-yl]-1H-indole-6-carbonitrile]	100 to 1000 nM
Cn1cc(-c2cnc(N)c3cnc(N[C@@H]4CCCC[C@@H]4N)nc23)cn1 (single isomer, unassigned) [Compound A1, N2-((cis)-2-Amino-cyclohexyl)-8-(1-methyl-1H-pyrazol-4-yl)-pyrido[4,3-d]-pyrimidine-2,5-diamine]	< 100 nM
Cn1cc(-c2cnc(N)c3cnc(N[C@H]4CCCC[C@H]4N)nc23)cn1 (single isomer, unassigned) [Compound A4, N2-((cis)-2-Amino-cyclohexyl)-8-(1-methyl-1H-pyrazol-4-yl)-pyrido[4,3-d]pyrimidine-2,5-diamine]	1000 to 50000 nM
CN1CN(c2ncc3c(N)ncc(-c4cnn(C)c4)c3n2)[C@@H]2CCCC[C@@H]21 (single isomer, unassigned) [Compound A11, 2-((cis)-3-Methyl-octahydro-benzoimidazol-1-yl)-8-(1-methyl-1H-pyrazol-4-yl)-pyrido[4,3-d]pyrimidin-5-ylamine]	1000 to 50000 nM
Nc1ncc(-c2ccc(OC(F)(F)F)cc2)c2nc(N[C@@H]3CCCC[C@@H]3N)ncc12 (single isomer, unassigned) [Compound A14, N2-((cis)-2-Amino-cyclohexyl)-8-(4-trifluoromethoxy-phenyl)-pyrido[4,3-d]pyrimidine-2,5-diamine]	100 to 1000 nM
Cc1cccc(-c2cnc(N)c3cnc(N[C@H]4CCCC[C@H]4N)nc23)c1 (single isomer, unassigned) [Compound A21, N2-((cis)-2-Amino-cyclohexyl)-8-m-tolyl-pyrido[4,3-d]pyrimidine-2,5-diamine]	1000 to 50000 nM
Cc1cccc(-c2cnc(N)c3cnc(N[C@@H]4CCCC[C@@H]4N)nc23)c1 (single isomer, unassigned) [Compound A22, N2-((cis)-2-Amino-cyclohexyl)-8-m-tolyl-pyrido[4,3-d]pyrimidine-2,5-diamine]	< 100 nM
FC1(CNc2ncc3cncc(-c4c[nH]c5cc(C(F)(F)F)ccc45)c3n2)CCCNC1 (single isomer, unassigned) [Compound A79, (3-fluoro-piperidin-3-ylmethyl)-[8-(6-trifluoromethyl-1H-indol-3-yl)-pyrido[4,3-d]pyrimidin-2-yl]-amine]	1000 to 50000 nM
Cc1ncc(-c2c[nH]c3cc(C(F)(F)F)ccc23)c2nc(N[C@@H]3CCCC[C@@H]3N)ncc12 (single isomer, unassigned) [Compound A88]	1000 to 50000 nM
Cc1ncc(-c2c[nH]c3cc(C(F)(F)F)ccc23)c2nc(N[C@H]3CCCC[C@H]3N)ncc12 (single isomer, unassigned) [Compound A89]	< 100 nM
N[C@@H]1CCCC[C@@H]1Nc1ncc2cncc(-c3c[nH]c4ccccc34)c2n1 (stereo in doubt) [Compound A27, (1S,2R)-N-[8-(1H-Indol-3-yl)-pyrido[4,3-d]pyrimidin-2-yl]-cyclohexane-1,2-diamine]	< 100 nM
Cc1cccc(-c2cncc3cnc(N[C@H]4CCCC[C@H]4N)nc23)c1 (stereo in doubt) [Compound A31, (1S,2R)-N-(8-m-Tolyl-pyrido[4,3-d]pyrimidin-2-yl)-cyclohexane-1,2-diamine]	100 to 1000 nM
N[C@@H]1CCCC[C@@H]1Nc1ncc2cncc(-c3cc4n(n3)CCCC4)c2n1 (stereo in doubt) [Compound A33, (1S,2R)-N-[8-(4,5,6,7-Tetrahydro-pyrazolo[1,5-a]pyridin-2-yl)-pyrido[4,3-d]pyrimidin-2-yl]-cyclohexane-1,2-diamine]	1000 to 50000 nM
COc1cccc(C#Cc2cncc3cnc(N[C@H]4CCCC[C@H]4N)nc23)c1 (stereo in doubt) [Compound A35, (1S,2R)-N-[8-(3-Methoxy-phenylethynyl)-pyrido[4,3-d]pyrimidin-2-yl]-cyclohexane-1,2-diamine]	100 to 1000 nM
COc1ccc2c(-c3cncc4cnc(N[C@H]5CCCC[C@H]5N)nc34)c[nH]c2c1 (stereo in doubt) [Compound A40, (1S,2R)-N-[8-(6-Methoxy-1H-indol-3-yl)-pyrido[4,3-d]pyrimidin-2-yl]-cyclohexane-1,2-diamine]	< 100 nM
